Values belong to the compound of their own block, whether it stands above or below them.
Assays:
[1] = test system: Staphylococcus aureus Russell; assay: In-vitro synergy: MIC of ampicillin in presence of sodium deoxyclavulanate; format: cell-based
Description: (§1) The antibacterial and synergistic properties of sodium deoxyclavulanate are illustrated by the following in-vitro results: | Minimum Inhibitory Concentration | (μg/ml) of Ampicillin in Presence | of Various Concentrations of | Sodium Deoxyclavulanate (μg/ml) |Organism 0 1 5 20

[2] = test system: Klebsiella aerogenes E70; assay: as above; format: cell-based
Description: as §1

[3] = test system: β-lactamase; settings: prior disclosures; cited from earlier work
[4] = prior disclosures; cited from earlier work
[5] = test system: Escherichia coli 10418; assay: In-vitro minimum inhibitory concentration; format: cell-based
Description: (§2) The antibacterial and synergistic properties of sodium deoxyclavulanate are illustrated by the following in-vitro results: | Minimum Inhibitory | Concentration of Sodium | Organism Deoxyclavulanate (μg/ml)

[6] = test system: Bacillus subtilis A; assay: In-vitro minimum inhibitory concentration; format: cell-based
Description: as §2

[7] = test system: Klebsiella aerogenes A; assay: In-vitro minimum inhibitory concentration; format: cell-based
Description: as §2

[8] = test system: Proteus mirabilis C 977; assay: In-vitro minimum inhibitory concentration; format: cell-based; settings: C977
Description: as §2

[9] = test system: Staph. aureus Oxford; assay: In-vitro minimum inhibitory concentration; format: cell-based; settings: Staphylococcus aureus
Description: as §2

[10] = test system: Staph. aureus Russell; assay: In-vitro minimum inhibitory concentration; format: cell-based; settings: Staphylococcus aureus
Description: as §2

[11] = test system: Serratia marcescens US 39; assay: In-vitro minimum inhibitory concentration; format: cell-based; settings: US39
Description: as §2

[12] = test system: Enterobacter cloacae N1; assay: In-vitro minimum inhibitory concentration; format: cell-based
Description: as §2

[13] = test system: Pseudomonas aeruginosa A; assay: In-vitro minimum inhibitory concentration; format: cell-based
Description: as §2

[14] = test system: Salmonella typhimurium CT10; assay: In-vitro minimum inhibitory concentration; format: cell-based; settings: Salmonella enterica
Description: as §2

[15] = Overt toxic effects in mice, intraperitoneal; format: in vivo; settings: intra peritoneally, 500 mg/kg
[16] = sodium deoxyclavulanate 0 μg/ml, read-out: Minimum Inhibitory Concentration of Ampicillin
[17] = sodium deoxyclavulanate 1 μg/ml
[18] = sodium deoxyclavulanate 5 μg/ml

MIC [1, 16]: 500 µg/mL
MIC [2, 16]: > 500 µg/mL
Structure (SMILES): CC1(C)S[C@@H]2[C@H](NC(=O)[C@H](N)c3ccccc3)C(=O)N2[C@H]1C(=O)O [Ampicillin]
Minimum Inhibitory Concentration of Ampicillin in Presence of Sodium Deoxyclavulanate [1, 17]: 0.8 µg/mL
Minimum Inhibitory Concentration of Ampicillin in Presence of Sodium Deoxyclavulanate [1, 18]: 0.08 µg/mL
Minimum Inhibitory Concentration of Ampicillin in Presence of Sodium Deoxyclavulanate [2, 17]: 0.8 µg/mL
Minimum Inhibitory Concentration of Ampicillin in Presence of Sodium Deoxyclavulanate [2, 18]: 0.2 to 0.4 µg/mL

Structure (SMILES): O=C(O)[C@H]1/C(=C\CO)O[C@@H]2CC(=O)N21 [Isoclavulanic acid, isoclavulanic acid]
β-lactamase inhibitory activity [3]: β-lactamase inhibitory activity
anti-bacterial activity [4]: also have anti-bacterial

Structure (SMILES): C/C=C1\O[C@@H]2CC(=O)N2[C@H]1C(=O)O [Sodium deoxyclavulanate, Sodium Deoxyclavulanate]
MIC [5]: 62.5 µg/mL
MIC [6]: 62.5 µg/mL
MIC [7]: 62.5 µg/mL
MIC [8]: 125 µg/mL
MIC [9]: 15.6 µg/mL
MIC [10]: 31 µg/mL
MIC [11]: 125 µg/mL
MIC [12]: 125 µg/mL
MIC [13]: 1000 µg/mL
MIC [14]: 125 µg/mL
overt toxic effects [15]: did not appear to produce any overt toxic effects
Inhibition by sodium deoxyclavulanate alone ([1]; sodium deoxyclavulanate 20 μg/ml): Inhibition produced by sodium deoxyclavulanate alone

Structure (SMILES): O=C(O)[C@H]1/C(=C/CO)O[C@@H]2CC(=O)N21 [clavulanic acid]
β-lactamase inhibitory activity [3]: β-lactamase inhibitory activity
anti-bacterial activity [4]: possess anti-bacterial
